The target in the assay is recombinant DYRK1A kinase (Homo sapiens, UniProt Q13627). Nature of the assay: DYRK1A kinase assay (Ser/Thr 18 peptide Z-lyte FRET). The assay is classed as biochemical. The conditions noted are these: DYRK1A 0.25 μg/mL, ATP 15 μM, Ser/Thr peptide 18 4 μM, one hour at room temperature, 11-point dose-response from 10 μM. As to the method:
Representative compounds were screened using the assay procedure for DYRK1A kinase activity as described below.
Each compound was dissolved in DMSO as a 10 mM stock and used to prepare compound source plates. Serial dilution (1:3, 11-point dose-response curves from 10 μM to 0.00016 μM) and compound transfer was performed using the ECHO 550 (Labcyte, Sunnyvale, CA) into 1536-well black-walled round bottom plates (Corning).
The DYRK1A kinase assay was run using the Ser/Thr 18 peptide Z-lyte assay kit according to manufacturer's instructions (Life Technologies—a Division of Thermo-Fisher). This is a non-radioactive assay using fluorescence resonance energy transfer (FRET) between coumarin and fluorescein to detect kinase activity which is represented as a ratio of coumarin emission/fluorescein emission.
Briefly, recombinant DYRK1A kinase, ATP and Ser/Thr peptide 18 were prepared in 1× Kinase buffer to final concentrations of 0.25 μg/mL, 15 μM, and 4 μM respectively. The mixture was allowed to incubate with the representative compounds for one hour at room temperature. All reactions were performed in duplicate. Unphosphorylated (“0% Control”) and phosphorylated (“100% control”) forms of Ser/Thr 18 served as control reactions. Additionally, an 11-point dose-response curve of Staurosporine (1 uM top) was run to serve as a positive compound control.
After incubation, Development Reagent A was diluted in Development Buffer then added to the reaction and allowed to further incubate for one hour at room temperature. The plate was read at Ex 400 Em 455 to detect the coumarin signal and Ex 400 Em 520 to measure the signal (EnVision Multilabel Plate Reader, PerkinElmer).
The Emission ratio (Em) was calculated as a ratio of the coumarin (C) emission signal (at 445 nm)/Fluorescein (F) emission signal (at 520 nm). The percent phosphorylation was then calculated using the following formula: [1−((Em ratio×F100%)−C100%)/((C0%−C100%)+(Em ratio×(F100%−F0%)))]. Dose-response curves were generated, and inhibitory concentration (IC50) values were calculated using non-linear regression curve fit in the Dotmatics' Studies Software (Bishops Stortford, UK).

Consider `CN1CC[C@H](Nc2nc(N)c3c(-c4ccc5ncn(CCF)c5n4)ccn3n2)[C@H](F)C1` [Compound 113, N^2-((3R,4S)-3-Fluoro-1-methylpiperidin-4-yl)-5-(3-(2-fluoroethyl)-3H-imidazo[4,5-b]pyridin-5-yl)pyrrolo[2,1-f][1,2,4]triazine-2,4-diamine], for which the IC50 stood at 0.8 nM.

In the case of `CNc1nc(N[C@@H]2CCN(C(C)=O)CC2(F)F)nn2ccc(-c3ccc4nnn(CCCF)c4n3)c12` [Compound 339, (R)-1-(3,3-Difluoro-4-((5-(3-(3-fluoropropyl)-3H-[1,2,3]triazolo[4,5-b]pyridin-5-yl)-4-(methylamino)pyrrolo[2,1-f][1,2,4]triazin-2-yl)amino)piperidin-1-yl)ethan-1-one], the IC50 is 3.5 nM. The result for `CC[C@]1(O)C[C@H](Nc2nc(NC)c3c(-c4ccc5nnn(CC(F)F)c5n4)ccn3n2)C1` [Compound 267, (1r,3s)-3-((5-(3-(2,2-Difluoroethyl)-3H-[1,2,3]triazolo[4,5-b]pyridin-5-yl)-4-(methylamino)pyrrolo[2,1-f][1,2,4]triazin-2-yl)amino)-1-ethylcyclobutan-1-ol] reads 0.5 nM. Consider `CNc1nc(N[C@H]2CCN(C3COC3)C[C@H]2F)nn2cc(F)c(-c3ccc4nc(C)n(CCF)c4n3)c12` [Compound 164, 6-Fluoro-N^2-((3R,4S)-3-fluoro-1-(oxetan-3-yl)piperidin-4-yl)-5-(3-(2-fluoroethyl)-2-methyl-3H-imidazo[4,5-b]pyridin-5-yl)-N^4-methylpyrrolo[2,1-f][1,2,4]triazine-2,4-diamine], for which the IC50 turned out to be 1.8 nM. Consider `CNc1nc(N[C@H]2CCN(C(C)=O)C[C@H]2F)nn2cc(F)c(-c3ccc4nnn(CC(F)F)c4n3)c12` [Compound 288, 1-((3R,4S)-4-((5-(3-(2,2-Difluoroethyl)-3H-[1,2,3]triazolo[4,5-b]pyridin-5-yl)-6-fluoro-4-(methylamino)pyrrolo[2,1-f][1,2,4]triazin-2-yl)amino)-3-fluoropiperidin-1-yl)ethan-1-one], for which the IC50 was determined as 2.4 nM. In the case of `CCNc1nc(N[C@H]2CCN(C3COC3)C[C@H]2F)nn2ccc(-c3ccc4nnn(CC(F)F)c4n3)c12` [Compound 403, 5-(3-(2,2-Difluoroethyl)-3H-[1,2,3]triazolo[4,5-b]pyridin-5-yl)-N^4-ethyl-N^2-((3R,4S)-3-fluoro-1-(oxetan-3-yl)piperidin-4-yl)pyrrolo[2,1-f][1,2,4]triazine-2,4-diamine], the IC50 worked out at 4.2 nM. For the compound `CNc1nc(NC2CCN(C3COC3)CC2)nn2ccc(-c3ccc4nnn(CC(F)F)c4n3)c12` [Compound 271, 5-(3-(2,2-Difluoroethyl)-3H-[1,2,3]triazolo[4,5-b]pyridin-5-yl)-N^4-methyl-N^2-(1-(oxetan-3-yl)piperidin-4-yl)pyrrolo[2,1-f][1,2,4]triazine-2,4-diamine], the IC50 came out at 2.9 nM.

Turning to `CNc1nc(N[C@H]2CCN(C3COC3)C[C@H]2F)nn2cc(F)c(-c3ccc4nnn(CCF)c4n3)c12` [Compound 250, 6-Fluoro-N^2-((3R,4S)-3-fluoro-1-(oxetan-3-yl)piperidin-4-yl)-5-(3-(2-fluoroethyl)-3H-[1,2,3]triazolo[4,5-b]pyridin-5-yl)-N^4-methylpyrrolo[2,1-f][1,2,4]triazine-2,4-diamine], the IC50 is 0.7 nM.

As for `COCCN1CC[C@H](Nc2nc(N)c3c(-c4ccc5ncn(CC(F)(F)F)c5n4)ccn3n2)[C@H](F)C1` [Compound 126, N^2-((3R,4S)-3-Fluoro-1-(2-methoxyethyl)piperidin-4-yl)-5-(3-(2,2,2-trifluoroethyl)-3H-imidazo[4,5-b]pyridin-5-yl)pyrrolo[2,1-f][1,2,4]triazine-2,4-diamine], the IC50 is 1.3 nM.

As for `CNc1nc(N[C@H]2CC[C@](C)(O)CC2)nn2cc(F)c(-c3ccc4nc(C)n(CCF)c4n3)c12` [Compound 162, (1r,4r)-4-((6-Fluoro-5-(3-(2-fluoroethyl)-2-methyl-3H-imidazo[4,5-b]pyridin-5-yl)-4-(methylamino)pyrrolo[2,1-f][1,2,4]triazin-2-yl)amino)-1-methylcyclohexan-1-ol], the IC50 was 3.1 nM. In the case of `CNc1nc(N[C@@H]2CCN(C3COC3)CC2(F)F)nn2cc(F)c(-c3ccc4nccn4n3)c12` [Compound 58, (R)—N^2-(3,3-Difluoro-1-(oxetan-3-yl)piperidin-4-yl)-6-fluoro-5-(imidazo[1,2-b]pyridazin-6-yl)-N^4-methylpyrrolo[2,1-f][1,2,4]triazine-2,4-diamine] it was 1.9 nM; in that of `CNc1nc(N[C@H]2CC[C@](C)(O)CC2)nn2cc(F)c(-c3ccc4nnn(CC(F)F)c4n3)c12` [Compound 286, (1r,4r)-4-((5-(3-(2,2-Difluoroethyl)-3H-[1,2,3]triazolo[4,5-b]pyridin-5-yl)-6-fluoro-4-(methylamino)pyrrolo[2,1-f][1,2,4]triazin-2-yl)amino)-1-methylcyclohexan-1-ol], 3.6 nM; in that of `Nc1nc(N[C@@H]2CCN(C3COC3)CC2(F)F)nn2ccc(-c3ccc4ncn(CCF)c4n3)c12` [Compound 119, (R)—N^2-(3,3-Difluoro-1-(oxetan-3-yl)piperidin-4-yl)-5-(3-(2-fluoroethyl)-3H-imidazo[4,5-b]pyridin-5-yl)pyrrolo[2,1-f][1,2,4]triazine-2,4-diamine], 1.4 nM. For the compound `Nc1nc(N[C@@H]2CCN(C3COC3)C[C@@H]2F)nn2ccc(-c3ccc4ncn(CC(F)F)c4n3)c12` [Compound 122, 5-(3-(2,2-Difluoroethyl)-3H-imidazo[4,5-b]pyridin-5-yl)-N^2-((3S,4R)-3-fluoro-1-(oxetan-3-yl)piperidin-4-yl)pyrrolo[2,1-f][1,2,4]triazine-2,4-diamine], the IC50 was 1.1 nM.

For the compound `CCn1nnc2ccc(-c3c(F)cn4nc(N[C@H]5CCN(C6COC6)C[C@H]5F)nc(NC)c34)nc21` [Compound 214, 5-(3-Ethyl-3H-[1,2,3]triazolo[4,5-b]pyridin-5-yl)-6-fluoro-N^2-((3R,4S)-3-fluoro-1-(oxetan-3-yl)piperidin-4-yl)-N^4-methylpyrrolo[2,1-f][1,2,4]triazine-2,4-diamine], the IC50 was determined as 4.9 nM. Consider `CNc1nc(N[C@@H]2CCN(C)CC2(F)F)nn2cc(F)c(-c3ccc4nccn4n3)c12` [Compound 55, (R)—N^2-(3,3-Difluoro-1-methylpiperidin-4-yl)-6-fluoro-5-(imidazo[1,2-b]pyridazin-6-yl)-N^4-methylpyrrolo[2,1-f][1,2,4]triazine-2,4-diamine], for which the IC50 was found to be 4 nM. Consider `CNc1nc(N[C@H]2CC[C@](C)(O)CC2)nn2ccc(-c3ccc4nnn(CCF)c4n3)c12` [Compound 234, (1r,4r)-4-((5-(3-(2-Fluoroethyl)-3H-[1,2,3]triazolo[4,5-b]pyridin-5-yl)-4-(methylamino)pyrrolo[2,1-f][1,2,4]triazin-2-yl)amino)-1-methylcyclohexan-1-ol], for which the IC50 turned out to be 0.8 nM. For `CNc1nc(N[C@@H]2CCN(C3COC3)CC2(F)F)nn2cc(F)c(-c3ccc4nnn(CCF)c4n3)c12` [Compound 254, (R)—N^2-(3,3-Difluoro-1-(oxetan-3-yl)piperidin-4-yl)-6-fluoro-5-(3-(2-fluoroethyl)-3H-[1,2,3]triazolo[4,5-b]pyridin-5-yl)-N^4-methylpyrrolo[2,1-f][1,2,4]triazine-2,4-diamine], the IC50 came to 2.2 nM.

By IC50 is commonly meant the concentration needed to halve the response being measured.

For the origin of these results see US20250340575A1, “4-AMINOPYRROLO[2,1-F][1,2,4]TRIAZINES AND PREPARATION AND USES THEREOF” (Biosplice Therapeutics, Inc., priority 2024, published 2025).
